Measured values reported in patent publication US20050112562A1, “Inhibition of retroviral replication through modulation of the host cell ubiquitylation” (Rigel Pharmaceuticals, Inc., priority 2003, published 2005).
Where a SMILES comes first, the peptide text is derived from it. [ ]: non-standard residue; d: D form. The star is where a group is joined. Nle = CCCC[C@H](N)C(=O)O; Cbz = O=C(OCc1ccccc1)*

Tests used:
Format in all cases: cell-based
[1] = system: vif-mediated degradation of the luciferase/apobec3G fusion protein in HeLa cells; experiment: co-transfection of luciferase/apobec3G and vif constructs at varied ratios, luciferase activity (FIG. 4); settings: for luciferase activity: 10 μM or 20 μM inhibitor, luciferase/apobec3G:vif 50:1 (tested 2:1, 25:1, 50:1, 100:1)
Experimental: Cells were co-transfected with the luciferase/apobec3G and vif constructs at relative concentrations of 2:1, 25:1, 50:1 and 100:1 (luciferase/apobec3G:vif) in the presence or absence of 10 μM or 20 μM MG132 or ALLN, known inhibitors of proteosome-mediated protein degradation.

[2] = system: vif-mediated degradation of the luciferase/apobec3G fusion protein; experiment: transient luciferase/apobec3G fusion reporter with co-introduced vif construct (chemiluminescence, western blot); settings: Phoenix and HeLa cells; band in final lane of each western blot
Description: A construct encoding a luciferase/apobec3G fusion protein was introduced into Phoenix and HeLa cells and transient expression of the luciferase/apobec3G fusion protein was monitored by detecting chemiluminescence. Results were normalized to the number of cells assayed. […] The gels shown at the top of both FIGS. 3A and 3B show results obtained from western blots of cell extracts using antibodies. Tesults obtained using anti-apobec3G and anti-lactate dehydrogenase antibodies are indicated as “3G” and “LDH”, respectively.
This phenomenon is inhibited by adding MG132, a known inhibitor of proteosome-mediated protein degradation (see the band observed in the final lane of each of the western blots). Cells containing both vif and a luciferase/apobec3G reporter can therefore be used to test agents for vif-inhibitory activity.

vif activity = experiment: vif expressed from different vectors with luciferase/apobec3G in a cell (FIGS. 5A-5E); settings: vif from pCMV, pcDNA6, pcDNA6 CTE, pEF6, pEF6 CTE constructs

| Compound | luciferase activity [1] | vif-caused decrease in luciferase activity / degradation of the luciferase/apobec3G fusion protein [2] | activity of an apobec3G-luciferase fusion ([1]; in the presence of apobec3G/vif in HeLa cells (FIG. 4 legend)) | modulation of vif activity (vif activity) |
| --- | --- | --- | --- | --- |
| CCCC[C@@H](C=O)NC(=O)[C@H](CC(C)C)NC(=O)[C@H](CC(C)C)NC(C)=O [ALLN] (Ac-Leu-Leu-[Nle]-aldehyde) | maximally increased luciferase activity | – | – | – |
| CC(C)C[C@@H](C=O)NC(=O)[C@H](CC(C)C)NC(=O)[C@H](CC(C)C)NC(=O)OCc1ccccc1 [MG132] (Cbz-Leu-Leu-Leu-aldehyde) | maximally increased luciferase activity | inhibited | increased activity | could be modulated |
